This experiment deals with T1, human sodium-dependent glucose transporter 2 (SGLT2, SLC5A2) (Homo sapiens, UniProt P31639).
T1 construct: Bases 21 to 2039 correspond to the complete coding region of human SGLT2; expressed in transfected cells; host or cells: CHO-TREx cells (Invitrogen), pcDNA4/TO vector, tetracycline-induced
T1 sequence (P31639 1-672): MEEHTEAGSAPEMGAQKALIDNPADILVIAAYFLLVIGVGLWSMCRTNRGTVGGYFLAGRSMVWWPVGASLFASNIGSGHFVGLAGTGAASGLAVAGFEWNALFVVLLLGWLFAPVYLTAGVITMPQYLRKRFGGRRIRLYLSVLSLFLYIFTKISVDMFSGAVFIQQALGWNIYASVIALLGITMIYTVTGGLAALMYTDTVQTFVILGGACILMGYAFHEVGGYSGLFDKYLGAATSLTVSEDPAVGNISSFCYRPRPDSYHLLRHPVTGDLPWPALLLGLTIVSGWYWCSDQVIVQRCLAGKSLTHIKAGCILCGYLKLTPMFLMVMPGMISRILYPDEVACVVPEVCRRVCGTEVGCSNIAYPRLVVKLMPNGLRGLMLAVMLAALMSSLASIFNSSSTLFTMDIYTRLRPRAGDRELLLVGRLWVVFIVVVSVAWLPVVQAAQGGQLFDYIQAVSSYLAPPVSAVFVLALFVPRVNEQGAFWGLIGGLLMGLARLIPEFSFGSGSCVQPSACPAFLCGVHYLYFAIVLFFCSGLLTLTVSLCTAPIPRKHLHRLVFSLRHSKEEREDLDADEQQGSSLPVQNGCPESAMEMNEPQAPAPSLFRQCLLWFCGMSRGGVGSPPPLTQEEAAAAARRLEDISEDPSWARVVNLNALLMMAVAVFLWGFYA
As to the kind of experiment: Inhibition of methyl-D-glucopyranoside uptake in CHO-TRex-hSGLT2 cells. In kind it is cell-based. The settings on record: recombinant SGLT2; read-out: IC50 SGLT 2. An excerpt: Inhibition of the Transport Activity of the Human Sodium-Dependent Glucose Transporter 2 (SGLT2, SLC5A2) In Vitro
1. Cloning of an Expression Vector for Human SGLT2
The cDNA for human SGLT2 was introduced into the pcDNA4/TO vector (Invitrogen) by means of standard methods of molecular biology as described in Sambrook et al. (Molecular Cloning, A Laboratory Manual, Second Edition). […] Bases 21 to 2039 correspond to the complete coding region of human SGLT2.
2. Production of a Recombinant Cell Line with Inducible Expression of Human SGLT2
The expression vector for human SGLT2 was introduced into CHO-TREx cells (Invitrogen) by means of FuGene6 lipofection (Roche). To select single cell clones, 600 μg/ml of Zeocin (Invitrogen) was added to the cell culture medium (nutrient mixture F-12 (Ham), (Invitrogen) supplemented with 10% fetal calf serum (FBS Gold, PAA), 10 μg/ml Blasticidin S(CN Biosciences), 100 units/ml penicillin, 100 units/ml streptomycin). The functionality of the single cell clones resulting from the selection was tested via their uptake activity for radiolabeled methyl- -D-glucopyranoside. That cell clone with the highest uptake activity for methyl- -D-glucopyranoside, referred to hereinafter as CHO-TRex-hSGLT2, was selected for the further experiments and cultured further in the presence of 600 μg/ml Zeocin.
3. Measurement of the Inhibiting Action of Test Substances on the Uptake of Methyl- -D-glucopyranoside (-MDG)
CHO-TRex-hSGLT2 cells were seeded in cell culture medium in a concentration of 50 000 cells per well in Cytostar-T scintillating 96-well plates (Amersham Biosciences) and cultivated for 24 h. The expression of the recombinant human SGLT2 was induced by adding 1 μg/ml tetrazykline for a further 24 h. For -MDG uptake experiments, the cells were washed with PBS and then starved at 37° C. in starvation medium (PBS supplemented with 10% fetal calf serum) for 1 hour. […] After an incubation time of 120 min at 37° C., the reaction was stopped by adding 50 μl/well of 10 mM methyl- -D-glucopyranoside in transport assay buffer (4° C.), and the radioactivity taken up into the cells was determined in a MicroBeta Scintillation Microplate Reader (Wallac). The half-maximum inhibiting action of the test substances (IC50 value) was determined as follows:
4. […] This is the measurement in the absence of substance, measured in sodium-containing transport assay buffer.
5. […] This is the measurement in the absence of substance, measured in sodium-free transport assay buffer (140 mM choline chloride, 2 mM potassium chloride, 1 mM magnesium chloride, 1 mM calcium chloride, 10 mM HEPES/Tris, pH7.5). […]
On to `COc1ccc(Cc2ccccc2OC2OC(CO)C(F)C(O)C2O)cc1` (stereo not shown) [Example 1 of formula III], for which the IC50 (usually the point on the concentration scale where inhibition reaches its midpoint) came to 34 nM.

For `CCc1ccc(Cc2ccccc2OC2OC(CO)C(F)C(O)C2O)cc1` (stereo not shown) [Example 20 of formula III], the half-maximal inhibitory concentration (IC50) was found to be 29 nM. For `CC(C)c1[nH]nc(OC2OC(CO)C(F)C(O)C2O)c1Cc1ccc(CCCC(=O)NC(CO)(CO)CO)cc1` (stereo not shown) [Example 21 of formula I] the value was 318 nM; for `COc1ccc(Cc2c(OC3OC(CO)C(F)C(O)C3O)n[nH]c2C(F)(F)F)cc1` (stereo not shown) [Example 5 of formula II], 88 nM.

The values above are taken from patent publication US20120270819A1, “USE OF COMPOUNDS WITH SGLT-1/SGLT-2 INHIBITOR ACTIVITY FOR PRODUCING MEDICAMENTS FOR TREATMENT OF BONE DISEASE” (SANOFI, priority 2009, published 2012).
